Earlier results in patent US20060153908A1, “Spherical pellet formulations” (priority 2002, published 2006).
Counter-ions that a name gives are not always drawn.

Settings: in water

In the case of COc1cccc(C2(O)CCCCC2CN(C)C)c1 (single isomer, unassigned) [Tramadol hydrochloride, (1R,2R or 1S,2S)-2-[(dimethylamino)methyl]-1-(3-methoxyphenyl)-cyclohexanol], the water solubility is given as “very water-soluble”.
